Test results published in patent publication US10167262B2, “Herbicidal substituted 3-arylpyrazoles” (FMC CORPORATION, priority 2014, dated 2019).

Columns and labels:
Assay in all cases: Test C postemergence greenhouse test, plant response rating 0-100
Assay type in all cases: in vivo
[1] = system: bermudagrass (Cynodon dactylon); settings: for Plant response rating, Bermudagrass: scale 0 to 100
How it was run: (§1)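 First, plants were raised in a sphagnum peat, vermiculite and nutrient medium to 1–4 leaves. Next, formulated test compounds were applied over the foliage. Finally, after 13–15 greenhouse days, injury was compared with controls and scored 0–100.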

[2] = system: canarygrass (Phalaris minor); settings: for Plant response rating, Canarygrass: scale 0 to 100
How it was run: as §1

[3] = system: cocklebur (common cocklebur, Xanthium strumarium); settings: for Plant response rating, Cocklebur: scale 0 to 100
How it was run: as §1

[4] = system: deadnettle (henbit deadnettle, Lamium amplexicaule); settings: for Plant response rating, Deadnettle: scale 0 to 100
How it was run: as §1

[5] = system: downy bromegrass (Bromus tectorum); settings: for Plant response rating, Bromegrass, Downy: scale 0 to 100
How it was run: as §1

[6] = system: goosegrass (Eleusine indica); settings: for Plant response rating, Goosegrass: scale 0 to 100
How it was run: as §1

[7] = system: green foxtail (Setaria viridis); settings: for Plant response rating, Foxtail, Green: scale 0 to 100
How it was run: as §1

[8] = system: surinam grass (Brachiaria decumbens); settings: for Plant response rating, Surinam Grass: scale 0 to 100
How it was run: as §1

[9] = system: windgrass (Apera spica-venti); settings: for Plant response rating, Windgrass: scale 0 to 100
How it was run: as §1

[10] = system: winter barley (Hordeum vulgare); settings: for Plant response rating, Barley: scale 0 to 100
How it was run: as §1

[11] = system: woolly cupgrass (Eriochloa villosa); settings: for Plant response rating, Cupgrass, Woolly: scale 0 to 100
How it was run: as §1

Fc1ccccc1NN=C(c1ccccc1)c1c[nH]nc1-c1cc(Cl)cc(Cl)c1 [Compound 57]
Plant response rating (0 to 100), Bermudagrass ([1]; 31 g ai/ha): 0 | Plant response rating (0 to 100), Bermudagrass ([1]; 62 g ai/ha): 0 | Plant response rating (0 to 100), Bermudagrass ([1]; 125 g ai/ha): 0 | Plant response rating, Bermudagrass ([1]; 250 g ai/ha): 5 | Plant response rating (0 to 100), Canarygrass ([2]; 31 g ai/ha): 0 | Plant response rating (0 to 100), Canarygrass ([2]; 62 g ai/ha): 0 | Plant response rating (0 to 100), Canarygrass ([2]; 125 g ai/ha): 0 | Plant response rating, Canarygrass ([2]; 250 g ai/ha): 0 | Plant response rating (0 to 100), Cocklebur ([3]; 31 g ai/ha): 10 | Plant response rating (0 to 100), Cocklebur ([3]; 62 g ai/ha): 70 | Plant response rating (0 to 100), Cocklebur ([3]; 125 g ai/ha): 70 | Plant response rating, Cocklebur ([3]; 250 g ai/ha): 70 | Plant response rating (0 to 100), Deadnettle ([4]; 31 g ai/ha): 0 | Plant response rating (0 to 100), Deadnettle ([4]; 62 g ai/ha): 0 | Plant response rating (0 to 100), Deadnettle ([4]; 125 g ai/ha): 0 | Plant response rating, Deadnettle ([4]; 250 g ai/ha): 0 | Plant response rating (0 to 100), Bromegrass, Downy ([5]; 31 g ai/ha): 0 | Plant response rating (0 to 100), Bromegrass, Downy ([5]; 62 g ai/ha): 0 | Plant response rating (0 to 100), Bromegrass, Downy ([5]; 125 g ai/ha): 0 | Plant response rating, Bromegrass, Downy ([5]; 250 g ai/ha): 0 | Plant response rating (0 to 100), Goosegrass ([6]; 31 g ai/ha): 0 | Plant response rating (0 to 100), Goosegrass ([6]; 62 g ai/ha): 0 | Plant response rating (0 to 100), Goosegrass ([6]; 125 g ai/ha): 0 | Plant response rating, Goosegrass ([6]; 250 g ai/ha): 0 | Plant response rating (0 to 100), Foxtail, Green ([7]; 31 g ai/ha): 0 | Plant response rating (0 to 100), Foxtail, Green ([7]; 62 g ai/ha): 0 | Plant response rating (0 to 100), Foxtail, Green ([7]; 125 g ai/ha): 0 | Plant response rating, Foxtail, Green ([7]; 250 g ai/ha): 0 | Plant response rating (0 to 100), Surinam Grass ([8]; 62 g ai/ha): 0 | Plant response rating (0 to 100), Surinam Grass ([8]; 125 g ai/ha): 0 | Plant response rating, Surinam Grass ([8]; 250 g ai/ha): 0 | Plant response rating (0 to 100), Windgrass ([9]; 62 g ai/ha): 0 | Plant response rating (0 to 100), Windgrass ([9]; 125 g ai/ha): 0 | Plant response rating, Windgrass ([9]; 250 g ai/ha): 0 | Plant response rating (0 to 100), Barley ([10]; 31 g ai/ha): 0 | Plant response rating (0 to 100), Barley ([10]; 62 g ai/ha): 0 | Plant response rating (0 to 100), Barley ([10]; 125 g ai/ha): 0 | Plant response rating, Barley ([10]; 250 g ai/ha): 0 | Plant response rating (0 to 100), Cupgrass, Woolly ([11]; 31 g ai/ha): 0 | Plant response rating (0 to 100), Cupgrass, Woolly ([11]; 62 g ai/ha): 0 | Plant response rating (0 to 100), Cupgrass, Woolly ([11]; 125 g ai/ha): 5 | Plant response rating, Cupgrass, Woolly ([11]; 250 g ai/ha): 5

Clc1cc(Cl)cc(-c2n[nH]cc2C(=NNc2ccccc2Cl)c2ccccc2)c1 [Compound 66]
Plant response rating (0 to 100), Bermudagrass ([1]; 62 g ai/ha): 0 | Plant response rating (0 to 100), Bermudagrass ([1]; 125 g ai/ha): 0 | Plant response rating, Bermudagrass ([1]; 250 g ai/ha): 0 | Plant response rating, Bermudagrass ([1]; 500 g ai/ha): 0 | Plant response rating (0 to 100), Canarygrass ([2]; 62 g ai/ha): 0 | Plant response rating (0 to 100), Canarygrass ([2]; 125 g ai/ha): 0 | Plant response rating, Canarygrass ([2]; 250 g ai/ha): 0 | Plant response rating, Canarygrass ([2]; 500 g ai/ha): 0 | Plant response rating (0 to 100), Cocklebur ([3]; 62 g ai/ha): 40 | Plant response rating (0 to 100), Cocklebur ([3]; 125 g ai/ha): 90 | Plant response rating, Cocklebur ([3]; 500 g ai/ha): 90 | Plant response rating (0 to 100), Deadnettle ([4]; 62 g ai/ha): 0 | Plant response rating (0 to 100), Deadnettle ([4]; 125 g ai/ha): 0 | Plant response rating, Deadnettle ([4]; 250 g ai/ha): 0 | Plant response rating, Deadnettle ([4]; 500 g ai/ha): 5 | Plant response rating (0 to 100), Bromegrass, Downy ([5]; 62 g ai/ha): 0 | Plant response rating (0 to 100), Bromegrass, Downy ([5]; 125 g ai/ha): 0 | Plant response rating, Bromegrass, Downy ([5]; 250 g ai/ha): 0 | Plant response rating, Bromegrass, Downy ([5]; 500 g ai/ha): 0 | Plant response rating (0 to 100), Goosegrass ([6]; 62 g ai/ha): 0 | Plant response rating (0 to 100), Goosegrass ([6]; 125 g ai/ha): 0 | Plant response rating, Goosegrass ([6]; 250 g ai/ha): 0 | Plant response rating, Goosegrass ([6]; 500 g ai/ha): 0 | Plant response rating (0 to 100), Foxtail, Green ([7]; 62 g ai/ha): 0 | Plant response rating (0 to 100), Foxtail, Green ([7]; 125 g ai/ha): 0 | Plant response rating, Foxtail, Green ([7]; 250 g ai/ha): 0 | Plant response rating, Foxtail, Green ([7]; 500 g ai/ha): 0 | Plant response rating (0 to 100), Surinam Grass ([8]; 62 g ai/ha): 0 | Plant response rating (0 to 100), Surinam Grass ([8]; 125 g ai/ha): 0 | Plant response rating, Surinam Grass ([8]; 250 g ai/ha): 0 | Plant response rating, Surinam Grass ([8]; 500 g ai/ha): 0 | Plant response rating (0 to 100), Windgrass ([9]; 62 g ai/ha): 0 | Plant response rating (0 to 100), Windgrass ([9]; 125 g ai/ha): 0 | Plant response rating, Windgrass ([9]; 250 g ai/ha): 0 | Plant response rating, Windgrass ([9]; 500 g ai/ha): 0 | Plant response rating (0 to 100), Barley ([10]; 62 g ai/ha): 0 | Plant response rating (0 to 100), Barley ([10]; 125 g ai/ha): 0 | Plant response rating, Barley ([10]; 250 g ai/ha): 0 | Plant response rating, Barley ([10]; 500 g ai/ha): 0 | Plant response rating (0 to 100), Cupgrass, Woolly ([11]; 62 g ai/ha): 0 | Plant response rating (0 to 100), Cupgrass, Woolly ([11]; 125 g ai/ha): 0 | Plant response rating, Cupgrass, Woolly ([11]; 250 g ai/ha): 0 | Plant response rating, Cupgrass, Woolly ([11]; 500 g ai/ha): 0
